The values that follow come from publication PMC6748671, “Distribution of Small Molecular Weight Drugs into the Porcine Lens: Studies on Imaging Mass Spectrometry, Partition Coefficients, and Implications in Ocular Pharmacokinetics” (Molecular Pharmaceutics, 2019).

Like-named read-outs stand apart in the source and are kept apart here.

On the set-up of data set [1]: method as in PMID 1898917. The note with it: highest Kp of previous reports; cited from earlier work.
The conditions of data set [2]: pH 7.0; cited from earlier work.
The conditions of data set [3]: cited from earlier work.
Data set [4] can be described thus: In vitro lens/buffer partition coefficient (Kp), isolated porcine lens, cassette mix, LC–MS/MS. The note with it: for Kp at 4 h: pig, isolated porcine lens.
A short description of data set [5]: Drug distribution in the porcine lens by MALDI-IMS. The note with it: for share of total lens volume into which the drugs distributed: pig, 4 h; for distribution pattern in the lens (MALDI-IMS): porcine lens, 4 h in vitro incubation. Here is the method: After 4 h, the buffer was removed from the vials and the lenses were rinsed with HBSS–HEPES and gently blotted dry. The lenses were weighed, snap-frozen with liquid nitrogen in flat-bottomed plastic tubes, and then stored at −80 °C until sample preparation and analysis with MALDI-IMS. For the experiment, a smaller set of 16 drugs was used.
The frozen lenses were mounted onto a chuck using an optimal cutting temperature compound (Sakura Finetek, CA, USA) on the equatorial side. The lenses were sectioned to 10 μm thickness at −20 °C on a Leica CM Cryostat (S3050, Leica Microsystems GmbH, Germany), equipped with a FEATHER Microtome C35 blade (pfm medical, UK), and collected on a cryofilm (3C16UF, SECTION-LAB Co. Ltd. Yokohama, Japan) by modified Kawamoto method.[23] The film was subsequently mounted onto a microscopy glass slide using a double-sided copper tape. The slides were washed twice with 50 mM ammonium formate for 30 s and dried in a vacuum desiccator. The sample slides contained three lens sections from the drug mixture experiment and three blanks. […] Matrix α-cyano-4-hydroxycinnamic acid (7 mg/mL in 50% acetonitrile containing 1% trifluoro acetic acid) (Sigma-Aldrich, St. Louis, MO, USA) was added via spray deposition using 10 passes, flow rate of 100 μL/min, temperature of 77 °C, track spacing of 2.5 mm, and velocity of 1300 mm/min (HTX Industries, TM-Sprayer, NC, USA).
MALDI Fourier transform-ion cyclotron resonance (FT-ICR)-IMS was performed using a Bruker 7T solariX XR mass spectrometer (Bruker Daltonics, Germany) at a 75 μm spatial resolution.
The drugs were identified as their [M + H]^+ ions. Peak finding was performed using mass error less than 2.5 ppm. MALDI images for each detected compound were plotted using a 0.01 μ mass window. From the images of the individual drugs, the intensity profiles across a 30 pixel (2.25 mm) wide area in anterior–posterior axis were plotted with ImageJ software (National Institutes of Health, USA).

Details of data set [6]: method as in PMID 2724118. The note with it: lowest Kp of previous reports; cited from earlier work.
Details of data set [7]: method as in PMID 7341754, PMID 2724118. The note with it: in rabbit and human; cited from earlier work.
A short description of the next data set: in vitro. Conditions: pig.
Data set [8] can be described thus: Pharmacokinetic simulation of topical timolol instillation with lens compartment. More on the design: species or system rabbit. Here is the method:
A pharmacokinetic simulation model for rabbit was built for topical timolol instillation based on the model of Ranta et al.[25] The lens compartment, separate from the reservoir compartment, was added to the model (Figure 1). The unknown parameter values for timolol distribution clearance between aqueous humor and lens (QLENS), Kp, and clearance from tear fluid to cornea (CLTF,CO) were obtained by adjusting the values manually until the simulated concentration in the lens matched with in vivo data on timolol distribution to the rabbit lens.[26] Finally, the distribution clearance between the aqueous humor and the reservoir (QRESERVOIR) and the volume of the reservoir (VRESERVOIR) were adjusted to match the corresponding parameters in the original model. For details of the model building and parameters, see the Supporting Information. STELLA software (v8.1.1, isee systems) was used to construct the simulation model.
Kinetic simulations were carried out to estimate how drug partitioning into the lens might affect ocular pharmacokinetics after single and multiple doses of eye drops. […] The run time was 7 days and the delta time was 0.5 min.
Pharmacokinetic simulations
The pharmacokinetic simulation model was built on a model of topical timolol instillation4, where a lens compartment, separate from the reservoir compartment, was added . Experimental concentration -time data, extracted with Webplotdigitizer ( v4.2, https://automeris.io/WebPlotDig-itizer), in the aqueous humor and lens after topical dosing of timolol 5 was used as a basis for the […]
The timolol distribution clearance between aqueous humor and lens (QLENS), lens-buffer partition coefficient (Kp) and clearance from tear fluid to cornea (CL TF,CO) were obtained by com-paring the simulated curves with experimental in vivo data on timolol distribution in the rabbit […]
and QLENS values, the distribution clearance between aqueous humor and reservoir (QRESERVOIR) and volume of the reservoir (VRESERVOIR) were changed to match the corresponding parameters in the original model4 (Supplementary table 1).
Supplementary figure 6. Adjustment of the lens-aqueous humor partition coefficient (Kp), the clearance between aqueous humor and lens (QLENS) and clearance from tear fluid to cornea (CLTF,CO) with experimental data5.
(1 picture or pasted object on this page, not shown here)
Supplementary table 1. Parameters for the pharmacokinetic simulation model.

The conditions of data set [9]: rabbit model parameter, cited from earlier work.
Where [10] appears, read: rabbit, adjusted from original model.
Where [11] appears, read: rabbit, adjusted with experimental in vivo data.

On to `CCCCCOc1ccc(C2SC(=O)NC2=O)cc1OCC` (centres unmarked) [CT-112], for which the “lens Kp in previous reports” value in data set [1] is given as 8.

`CCN(CC)c1ccc2c(-c3ccccc3C(=O)O)c3ccc(=[N+](CC)CC)cc-3oc2c1` [Rhodamine-B]: the “experimental log D7.0” value in [2] is given as 2.

For the molecule `C[C@@H]1C[C@H]2[C@@H]3CCC4=CC(=O)C=C[C@]4(C)[C@@]3(F)[C@@H](O)C[C@]2(C)[C@@]1(O)C(=O)CO` [dexamethasone], the “concentration in the lens in vivo compared with aqueous humor, iris and ciliary body” value in [3] is on record as “much lower”.

Take `O=C(O)Cc1ccccc1Nc1c(Cl)cccc1Cl` [diclofenac]: the “concentration equilibrium between incubate and lens at 4 h” value in data set [4] (porcine lens in vitro, incubation time 4 h (Figure S7)) is given as “would have required longer incubation time to reach true equilibria”.

With `O=C1OC2(c3ccc(O)cc3Oc3cc(O)ccc32)c2ccccc21` [fluorescein sodium], the “experimental log D7.0” value in data set [2] is 0.1.

As to `CC(=O)/N=c1/sc(S(N)(=O)=O)nn1C` [methazolamide], in data set [4], the Kp at 4 h came out at 0.047.

`CC[C@@H]1C(=O)OC[C@@H]1Cc1cncn1C` [pilocarpine]: in data set [5], the “share of total lens volume into which the drugs distributed” value (“share” below) is 27.1%; the “distribution pattern in the lens (MALDI-IMS)” value was “only in the capsule and cortex of the lens but not in the nucleus”. Moreover, the “lens Kp in previous reports” value in data set [6] is “about 0.3”. In addition, the “lens Kp, previous literature” value in [7] is listed as 0.3–1.0. Further, the “concentration in the lens in vivo compared with aqueous humor, iris and ciliary body” value in data set [3] is “much lower”. The Kp at 4 h in [4] was 0.145.

Take `CC(C)NCC(O)COc1cccc2[nH]ccc12` (centres unmarked) [pindolol]: the “share” value in data set [5] is on record as 27.1%.

Take `CC(C)NCC(O)COc1cccc2ccccc12` (centres unmarked) [propranolol]: the “share” value in [5] is 27.1%. For the same molecule, the Kp at 4 h in “in vitro” turned out to be 0.762.

`CC(C)(C)NC[C@H](O)COc1nsnc1N1CCOCC1` [timolol]: in data set [8] (setting [10]), the “QRESERVOIR (distribution clearance between aqueous humor and reservoir)” value is 11.888 µL/min; the “VRESERVOIR (reservoir volume)” value is 262 µL. In [8] (setting [11]), the “CLTF,CO (clearance from tear fluid to cornea)” value is 1.3 µL/min; the “QLENS (distribution clearance between aqueous humor and lens)” value is 0.6 µL/min. The Kp in [8] (topical, rabbit lens, adjusted manually to in vivo data on timolol distribution (Lee et al.), read-out: Kp (lens-buffer partition coefficient), model parameter) was 0.35. For the same molecule, in [9] (aqueous humor, ref SI 4, 8), the “kel (elimination rate constant)” value was 0.057 min⁻¹. The “CLTF,CJ (clearance from tear fluid by conjunctival absorption)” value in [9] (ref SI 4, 7) was 10.4 µL/min. Moreover, the “concentration in the lens in vivo compared with aqueous humor, iris and ciliary body” value in data set [3] was “much lower”.

Take `Clc1ccc2nsnc2c1NC1=NCCN1` [tizanidine]: in data set [5], the “share” value is 27.1%; the “distribution pattern in the lens (MALDI-IMS)” value was “only in the capsule and cortex of the lens but not in the nucleus”.

Consider Rhodamine-123, for which the “experimental log D7.0” value in data set [2] was 0.4.
